One data set relates to soil urease. The note with it: surface application of urea; literature; cited from earlier work.
The next data set relates to nitrification. The following applies: combination with UAN or banded urea solution; literature; cited from earlier work.
The subject of data set [1] is urease. As to the kind of experiment: Ammonia volatilization from soil-applied urea solution with additive compound (continuous air purge, ammonia collected in sulfuric acid, indophenol blue method). The protocol:
The amount of additive compound set forth in Table 1 below was added to a solution of reagent grade urea having a urea concentration of 13850 micrograms of nitrogen per 2 ml, together with the desired amount of compound. This urea concentration was selected to be equivalent to an application rate of 100 lbs of nitrogen per acre. A standard sample containing only urea in the same concentration and an unfertilized blank (2 ml of distilled water) also were applied to soil.
The amounts of additive compound were calculated to provide the desired quantity of that compound appropriate for application of a 50 percent w/v solution of urea (i.e., 50 grams of urea per 100 ml of water) to supply 100 lbs of nitrogen per acre. Each additive compound was used at 5 and 10 percent of the volume of urea solution. The treatments were therefore equivalent to the application 198 liters (52.3 US gallons) of urea solution per acre together with 9.9 liters (2.6 US gallons) of additive compound at the low rate or 19.8 liters (5.2 US Gallons) at the high rate.
Soil was treated and ammonia measurements were taken in accordance with the following method. Plastic containers with a diameter of 4.2 cm were used for this study. Each container was filled with 60 g of a sandy soil and moistened with 12 mls water to 86% of its water holding capacity. All treatments were surface applied in 2 mls of solution, bringing the moisture level up to field capacity.
The air was humidified before introduction by bubbling it through distilled water, then passing it through a cotton plug to remove moisture droplets. Evolved ammonia was collected by passing the air through 50 mls of 0.5 M sulfuric acid. This was sufficient to collect 3 times the total amount of nitrogen added, ensuring that the solution never became saturated with ammonia. The amounts of ammonia collected in the sulfuric acid solutions were determined by the indophenol blue method.
Ammonia measurements were taken at 2 and 7 days after application. […] The amounts of ammonia collected are expressed as a percentage of the total that was applied.
The amount of additive compound set forth in Table 3 below was added to a solution of reagent grade urea having a urea concentration of 13850 micrograms of nitrogen per 2 ml, together with the desired amount of compound. This urea concentration was selected to be equivalent to an application rate of 100 lbs of nitrogen per acre. A standard sample containing only urea in the same concentration and an unfertilized blank (2 ml of distilled water) also were applied to soil.
The amounts of additive compound were calculated to provide the desired quantity of that compound appropriate for application of a 50 percent w/v solution of urea (i.e., 50 grams of urea per 100 ml of water) to supply 100 lbs of nitrogen per acre. The urea and additive compounds were applied to soil in accordance with the method described in Example 1.
Calcium polysulfide solution was added at a rate of 1, 2, 4 and 8 percent of the volume of urea solution. K-Sul® was added at a rate of 5 and 10 percent of the volume of urea solution. Ammonia measurements were taken at 2 and 7 days after application. […] The amounts of ammonia collected are expressed as a percentage of the total that was applied.
In each treatment, the appropriate amount of product was added to a solution of reagent grade urea and made to 100 mls in volumetric flasks. Concentrations were adjusted to ensure that the 2 mls of each solution provided 13850 micrograms of nitrogen together with the required amount of product to provide the equivalent of an application rate of 100 lbs of nitrogen per acre. A standard sample contained only urea and an unfertilized blank was treated with 2 mls of distilled water.

Data set [2] in a line: pH of the solutions of urea and additive compound. Format: physicochemical. The following applies: urea-only solution.
Data set [3] relates to urease. The note with it: Example 6.
The mark [4] stands for this setting: Example 1, urea only, no additive.
The mark [5] stands for this setting: Example 3, urea only, no additive.
Setting [6] is: Example 5, urea only, no additive.

Where two headings read alike, the source gives them in different places.

As to `[Ca+2].[Cl-].[Cl-]` [Calcium chloride], the “effect on ammonia volatilization (in words)” value in the data set on soil urease was “delays the start of ammonia volatilization”.
As to ammonium polyphosphate, the “effect on nitrification (in words)” value in the data set on nitrification is “only a weak effect”.
With `NC(N)=O` [Urea], in the data set on urease [1] (setting [4]), the “% Loss 0-2 days” value turned out to be 22.0%, the “% Loss 3-7 days” value was 3.9% and the “% Loss Total” value is 25.9%. Further, in the data set on urease [1] (setting [5]), the “% lost 0-2 days” value came out at 25.56%, the “% lost 3-7 days” value was found to be 11.45% and the “% lost Total” value worked out at 37.01%. Moreover, in the data set with urease [1] (setting [6]), the “% lost 0-2 days” value is listed as 25.50%, the “% lost 3-7 days” value is on record as 8.25% and the “% lost Total” value came to 33.75%. The “Solution pH” value in data set [2] (Example 2) came to 8.4. The “Solution pH” value in data set [2] (Example 4) is listed as 9.0. In the data set with urease [3] (100 lbs N per ac), the “% of N applied” value is 2.07%; the “Ammonia collected, mg Day 2” value is given as 0.14 mg; the “Ammonia collected, mg Day 7” value was determined as 2.32 mg; the “Ammonia collected, mg Day 14” value worked out at 0.78 mg. Moreover, in the data set on urease [3] (100 lbs N per ac), the “Ammonia collected, mg Day 21” value is reported as 0.00 mg; the “Ammonia collected, mg Day 28” value is recorded as 0.00 mg; the “Ammonia collected, mg Total” value is 3.25 mg. In the data set on urease [3] (200 lbs N per ac), the “% of N applied” value was 3.17%; the “Ammonia collected, mg Day 2” value is reported as 0.31 mg; the “Ammonia collected, mg Day 7” value is 4.86 mg; the “Ammonia collected, mg Day 14” value worked out at 4.31 mg. Also, in the data set on urease [3] (200 lbs N per ac), the “Ammonia collected, mg Day 21” value stood at 0.47 mg; the “Ammonia collected, mg Day 28” value came to 0.00 mg; the “Ammonia collected, mg Total” value was 9.94 mg.
On to ammonium polysulfide, for which, in the data set with urease [1] (summary of Examples 1-4), the “urease inhibition and ammonia volatilization inhibition, comparison between products (in words)” value is “less urease inhibition activity than calcium polysulfide”. Besides, the “effect on nitrification (in words)” value in the data set on nitrification is listed as “no effect on nitrification”.

(Values after patent US20060185411A1, “Calcium polysulfide, potassium polysulfide, calcium thiosulfate, and magnesium thiosulfate as urease inhibitors” (Tessenderlo Kerley, Inc., priority 2005, published 2006).)
